Source: patent US20260022142A1, “MACROCYCLIC IMMUNOMODULATORS” (Bristol-Myers Squibb Company, priority 2022, published 2026)
Bridge positions count the residues as written; N and C are the ends. Square brackets hold non-standard residues; d marks the D form. Peptide text beside a SMILES is read from it. * marks the point of attachment. ξ: configuration not given here. Phe(4-CH2NH2) = NCc1ccc(C[C@H](N)C(=O)O)cc1; Bip = N[C@@H](Cc1ccc(-c2ccccc2)cc1)C(=O)O; Phe(3-Me) = Cc1cccc(C[C@H](N)C(=O)O)c1; Val(3-OH) = CC(C)(O)[C@H](N)C(=O)O; hArg = N=C(N)NCCCC[C@H](N)C(=O)O; 4Pal = N[C@@H](Cc1ccncc1)C(=O)O; Cha = N[C@@H](CC1CCCCC1)C(=O)O; Cit = NC(=O)NCCC[C@H](N)C(=O)O; aThr = C[C@H](O)[C@H](N)C(=O)O; Thr(3ξ) = CC(O)[C@H](N)C(=O)O; Phg = N[C@H](C(=O)O)c1ccccc1; 12Ado = NCCCCCCCCCCCC(=O)O; 3Abz = Nc1cccc(C(=O)O)c1; Carboxymethyl = O=C(O)C*; Orn = NCCC[C@H](N)C(=O)O; Aun = NCCCCCCCCCCC(=O)O; Dab = NCC[C@H](N)C(=O)O; Dap = NC[C@H](N)C(=O)O; AEEA = NCCOCCOCC(=O)O

The molecules below were run against T1, PD-1/PD-L1 interaction (PE-labeled human PD-L1-Ig binding to Jurkat cell line over-expressing human PD-1) (Homo sapiens, UniProt Q15116) (assay: Jurkat-PD-1 Cell Binding High-Content Screening Assay (CBA)). Conditions: Jurkat cell line over-expressing human PD-1; PE-labeled PD-L1-Ig 20 nM final; read-out: Jurkat hPD1-PDL1 IC50.
T1 construct: expressed in transfected cells; host or cells: Jurkat
T1 sequence (Q15116 25-288): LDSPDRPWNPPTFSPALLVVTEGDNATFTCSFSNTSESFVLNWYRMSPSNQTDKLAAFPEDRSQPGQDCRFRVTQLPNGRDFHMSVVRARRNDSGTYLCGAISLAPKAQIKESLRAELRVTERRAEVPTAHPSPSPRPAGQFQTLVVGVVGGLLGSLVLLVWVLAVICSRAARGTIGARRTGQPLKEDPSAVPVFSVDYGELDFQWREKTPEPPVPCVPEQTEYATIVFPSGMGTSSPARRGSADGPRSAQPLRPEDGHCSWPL
Assay type: cell-based
Summary of the method: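 Jurkat cells stably over-expressing human PD-1 were seeded in DMEM with 10% fetal calf serum and pre-incubated with compound for 2 h at 37° C. PE-labeled human PD-L1-Ig was then added at 20 nM final for 1 hour, after which cells were fixed with paraformaldehyde, Hoechst-stained and imaged by high-content microscopy.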

SMILES | IC50
Cc1cccc(C[C@@H]2NC(=O)[C@H](CC(=O)O)NC(=O)[C@H](Cc3ccc(OCC(=O)O)cc3)NC(=O)[C@H](CN)NC(=O)CSC[C@@H](C(=O)N[C@@H](CCN)C(=O)NCCCCCCCCCCC(=O)O)NC(=O)[C@H]([C@H](C)O)NC(=O)[C@H](C(C)O)NC(=O)[C@H](CC3CCCCC3)NC(=O)[C@H](CCN)NC(=O)[C@@H](CC(C)C)NC(=O)[C@H](CCCN)NC(=O)[C@H](Cc3ccc(O)cc3)NC(=O)[C@H](Cc3ccc(-c4ccccc4)cc3)NC(=O)[C@H](Cc3ccc(OCC(=O)O)cc3)NC2=O)c1 (stereo partly drawn) [Compound 3595] ({CH2CO}-[Dap]Y(Carboxymethyl)D[Phe(3-Me)]Y(Carboxymethyl)[Bip]Y[Orn][dL][Dab][Cha][Thr(3ξ)][aThr]C[Dab][Aun]-OH; thioether N-14) | 151 nM
Cc1cccc(C[C@@H]2NC(=O)[C@H](CC(=O)O)NC(=O)[C@H](Cc3ccc(OCC(=O)O)cc3)NC(=O)[C@H](CN)NC(=O)CSC[C@@H](C(=O)N[C@@H](CCN)C(=O)NCCCCCCCCCCC(=O)O)NC(=O)[C@H]([C@@H](C)O)NC(=O)[C@H](C(C)C)NC(=O)[C@H](CC3CCCCC3)NC(=O)[C@H](CCN)NC(=O)[C@@H](CC(C)C)NC(=O)[C@H](CCCN)NC(=O)[C@H](CCCNC(N)=O)NC(=O)[C@H](Cc3ccc(-c4ccccc4)cc3)NC(=O)[C@H](C(C)C)NC2=O)c1 [Compound 1064] ({CH2CO}-[Dap]Y(Carboxymethyl)D[Phe(3-Me)]V[Bip][Cit][Orn][dL][Dab][Cha]VTC[Dab][Aun]-OH; thioether N-14) | 16.3 nM
Cc1cccc(C[C@@H]2NC(=O)[C@H](CC(=O)O)NC(=O)[C@H](Cc3ccc(OCC(=O)O)cc3)NC(=O)[C@H](CN)NC(=O)CSC[C@@H](C(=O)N[C@@H](CCN)C(=O)NCCOCCOCC(=O)NCCCCCCCCCCC(=O)O)NC(=O)[C@H](CCCN)NC(=O)[C@H](C(C)C)NC(=O)[C@H](CC3CCCCC3)NC(=O)[C@H](CCN)NC(=O)[C@@H](CC(C)C)NC(=O)[C@H](CCCN)NC(=O)[C@H](Cc3ccc(O)cc3)NC(=O)[C@H](Cc3ccc(-c4ccccc4)cc3)NC(=O)[C@H](Cc3ccc(CN)cc3)NC2=O)c1 [Compound 2067] ({CH2CO}-[Dap]Y(Carboxymethyl)D[Phe(3-Me)][Phe(4-CH2NH2)][Bip]Y[Orn][dL][Dab][Cha]V[Orn]C[Dab][AEEA][Aun]-OH; thioether N-14) | 53.2 nM
CC(C)C[C@@H]1NC(=O)[C@H](Cc2c[nH]c3ccccc23)NC(=O)[C@H](CC(=O)O)NC(=O)[C@H](Cc2ccncc2)NC(=O)[C@H](Cc2ccc(OCC(=O)O)cc2)NC(=O)CSC[C@@H](C(=O)Nc2cccc(C(=O)NCCCCCCCCCCC(=O)O)c2)NC(=O)[C@H](CCN)NC(=O)[C@H](C(C)C)NC(=O)[C@H](CC2CCCCC2)NC(=O)[C@H](CCN)NC(=O)[C@@H](CC(C)C)NC(=O)[C@H](CCCN)NC(=O)[C@H](C(C)C)NC(=O)[C@H](Cc2ccc(-c3ccccc3)cc2)NC1=O [Compound 1228] ({CH2CO}-Y(Carboxymethyl)[4Pal]DWL[Bip]V[Orn][dL][Dab][Cha]V[Dab]C[3Abz][Aun]-OH; thioether N-14) | 307 nM
Cc1cccc(C[C@@H]2NC(=O)[C@H](CC(=O)O)NC(=O)[C@H](Cc3ccc(OCC(=O)O)cc3)NC(=O)[C@H](CC(N)=O)NC(=O)CSC[C@@H](C(=O)N[C@@H](CCC(=O)O)C(=O)NCCCCCCCCCCC(=O)O)NC(=O)[C@H]([C@H](C)O)NC(=O)[C@H](C(C)C)NC(=O)[C@H](CC3CCCCC3)NC(=O)[C@H](CCN)NC(=O)[C@@H](CC(C)C)NC(=O)[C@H](CCCN)NC(=O)[C@H](Cc3ccc(O)cc3)NC(=O)[C@H](Cc3ccc(-c4ccccc4)cc3)NC(=O)[C@H](C(C)C)NC2=O)c1 [Compound 3376] ({CH2CO}-NY(Carboxymethyl)D[Phe(3-Me)]V[Bip]Y[Orn][dL][Dab][Cha]V[aThr]CE[Aun]-OH; thioether N-14) | 14.8 nM
Cc1cccc(C[C@@H]2NC(=O)[C@H](CC(=O)O)NC(=O)[C@H](Cc3ccc(OCC(=O)O)cc3)NC(=O)[C@H](Cc3ccncc3)NC(=O)CSC[C@@H](C(=O)N[C@@H](CCN)C(=O)NCCOCCOCC(=O)NCCCCCCCCCCC(=O)O)NC(=O)[C@H](CCC(=O)O)NC(=O)[C@H](C(C)(C)O)NC(=O)[C@H](CC3CCCCC3)NC(=O)[C@H](CCN)NC(=O)[C@@H](CC(C)C)NC(=O)[C@H](CCC(N)=O)NC(=O)[C@H](Cc3ccc(OCC(=O)O)cc3)NC(=O)[C@H](Cc3ccc(-c4ccccc4)cc3)NC(=O)[C@H](Cc3ccc(OCC(=O)O)cc3)NC2=O)c1 [Compound 3746] ({CH2CO}-[4Pal]Y(Carboxymethyl)D[Phe(3-Me)]Y(Carboxymethyl)[Bip]Y(Carboxymethyl)Q[dL][Dab][Cha][Val(3-OH)]EC[Dab][AEEA][Aun]-OH; thioether N-14) | 6.8 nM
Cc1cccc(C[C@@H]2NC(=O)[C@H](CC(=O)O)NC(=O)[C@H](Cc3ccc(OCC(=O)O)cc3)NC(=O)[C@H](CCN)NC(=O)CSC[C@@H](C(=O)N[C@@H](CCN)C(=O)N[C@@H](CO)C(=O)NCCCCCCCCCCCC(=O)O)NC(=O)[C@H](CO)NC(=O)[C@H](C(C)(C)O)NC(=O)[C@H](CC3CCCCC3)NC(=O)[C@H](CCN)NC(=O)[C@@H](CC(C)C)NC(=O)[C@H](CCCN)NC(=O)[C@H](Cc3ccc(OCC(=O)O)cc3)NC(=O)[C@H](Cc3ccc(-c4ccccc4)cc3)NC(=O)[C@H](Cc3ccc(OCC(=O)O)cc3)NC2=O)c1 [Compound 3625] ({CH2CO}-[Dab]Y(Carboxymethyl)D[Phe(3-Me)]Y(Carboxymethyl)[Bip]Y(Carboxymethyl)[Orn][dL][Dab][Cha][Val(3-OH)]SC[Dab]S[12Ado]-OH; thioether N-14) | 23.3 nM
CC(C)C[C@H]1NC(=O)[C@H](CCN)NC(=O)[C@H](C(C)C)NC(=O)[C@H](Cc2ccc(-c3ccccc3)cc2)NC(=O)[C@H](C(C)C)NC(=O)[C@H](Cc2c[nH]c3ccccc23)NC(=O)[C@H](CC(=O)O)NC(=O)[C@H](Cc2ccc(OCC(=O)O)cc2)NC(=O)[C@H](CCCCNC(=N)N)NC(=O)CSC[C@@H](C(=O)N[C@H](CC(N)=O)C(=O)NCCCCCCCCCCC(=O)O)NC(=O)[C@H](CCCN)NC(=O)[C@H](C(C)C)NC(=O)[C@H](CC2CCCCC2)NC(=O)[C@H](CCN)NC1=O [Compound 3277] ({CH2CO}-[hArg]Y(Carboxymethyl)DWV[Bip]V[Dab][dL][Dab][Cha]V[Orn]C[dN][Aun]-OH; thioether N-14) | 10.5 nM
Cc1cccc(C[C@@H]2NC(=O)[C@H](CC(=O)O)NC(=O)[C@H](Cc3ccc(OCC(=O)O)cc3)NC(=O)[C@H](CCN)NC(=O)CSC[C@@H](C(=O)NCCOCCOCC(=O)NCCCCCCCCCCC(=O)O)NC(=O)[C@H](C(C)O)NC(=O)[C@H](C(C)C)NC(=O)[C@H](CC3CCCCC3)NC(=O)[C@H](CCN)NC(=O)[C@@H](CC(C)C)NC(=O)[C@H](CCCN)NC(=O)[C@H](CCCNC(N)=O)NC(=O)[C@H](Cc3ccc(-c4ccccc4)cc3)NC(=O)[C@H](C(C)C)NC2=O)c1 (stereo partly drawn) [Compound 3047] ({CH2CO}-[Dab]Y(Carboxymethyl)D[Phe(3-Me)]V[Bip][Cit][Orn][dL][Dab][Cha]V[Thr(3ξ)]C[AEEA][Aun]-OH; thioether N-14) | 13.3 nM

Further molecules by falling IC50, results first:

IC50 | SMILES
197 nM | Cc1cccc(C[C@@H]2NC(=O)[C@H](CC(=O)O)NC(=O)[C@H](Cc3ccc(OCC(=O)O)cc3)NC(=O)[C@H](CN)NC(=O)CSC[C@@H](C(=O)N[C@@H](CCN)C(=O)NCCCCCCCCCCC(=O)O)NC(=O)[C@H](c3ccccc3)NC(=O)[C@H](C(C)C)NC(=O)[C@H](CC3CCCCC3)NC(=O)[C@H](CCN)NC(=O)[C@@H](CC(C)C)NC(=O)[C@H](CCCN)NC(=O)[C@H](Cc3ccc(O)cc3)NC(=O)[C@H](Cc3ccc(-c4ccccc4)cc3)NC(=O)[C@H](C(C)C)NC2=O)c1 [Compound 2762] ({CH2CO}-[Dap]Y(Carboxymethyl)D[Phe(3-Me)]V[Bip]Y[Orn][dL][Dab][Cha]V[Phg]C[Dab][Aun]-OH; thioether N-14)
8.9 nM | CC(C)C[C@H]1NC(=O)[C@H](CCCN)NC(=O)[C@H](C(C)C)NC(=O)[C@H](Cc2ccc(-c3ccccc3)cc2)NC(=O)[C@H](C(C)C)NC(=O)[C@H](Cc2c[nH]c3ccccc23)NC(=O)[C@H](CC(=O)O)NC(=O)[C@H](Cc2ccc(OCC(=O)O)cc2)NC(=O)[C@H](CCCNC(=N)N)NC(=O)CSC[C@@H](C(=O)NCC(=O)NCCOCCOCC(=O)N[C@@H](CCCN)C(=O)NCCCCCCCCCCC(=O)O)NC(=O)[C@H](CO)NC(=O)[C@H](C(C)C)NC(=O)[C@H](CC2CCCCC2)NC(=O)[C@H](CCN)NC1=O [Compound 3230] ({CH2CO}-RY(Carboxymethyl)DWV[Bip]V[Orn][dL][Dab][Cha]VSCG[AEEA][Orn][Aun]-OH; thioether N-14)
8.1 nM | Cc1cccc(C[C@@H]2NC(=O)[C@H](CC(=O)O)NC(=O)[C@H](Cc3ccc(OCC(=O)O)cc3)NC(=O)[C@H](CCCNC(=N)N)NC(=O)CSC[C@@H](C(=O)N[C@@H](CCN)C(=O)NCCCCCCCCCCC(=O)O)NC(=O)[C@H](C(C)O)NC(=O)[C@H](C(C)C)NC(=O)[C@H](CC3CCCCC3)NC(=O)[C@H](CCN)NC(=O)[C@@H](CC(C)C)NC(=O)[C@H](CCCN)NC(=O)[C@H](CCC(N)=O)NC(=O)[C@H](Cc3ccc(-c4ccccc4)cc3)NC(=O)[C@H](C(C)C)NC2=O)c1 (stereo partly drawn) [Compound 3355] ({CH2CO}-RY(Carboxymethyl)D[Phe(3-Me)]V[Bip]Q[Orn][dL][Dab][Cha]V[Thr(3ξ)]C[Dab][Aun]-OH; thioether N-14)
4 nM | Cc1cccc(C[C@@H]2NC(=O)[C@H](CC(=O)O)NC(=O)[C@H](Cc3ccc(OCC(=O)O)cc3)NC(=O)[C@H](CN)NC(=O)CSC[C@@H](C(=O)N[C@@H](CCN)C(=O)NCCOCCOCC(=O)NCCCCCCCCCCC(=O)O)NC(=O)[C@H](CCCN)NC(=O)[C@H](C(C)C)NC(=O)[C@H](CC3CCCCC3)NC(=O)[C@H](CCN)NC(=O)[C@@H](CC(C)C)NC(=O)[C@H](CCCN)NC(=O)[C@H](Cc3ccc(O)cc3)NC(=O)[C@H](Cc3ccc(-c4ccccc4)cc3)NC(=O)[C@H](Cc3ccc(OCC(=O)O)cc3)NC2=O)c1 [Compound 2059] ({CH2CO}-[Dap]Y(Carboxymethyl)D[Phe(3-Me)]Y(Carboxymethyl)[Bip]Y[Orn][dL][Dab][Cha]V[Orn]C[Dab][AEEA][Aun]-OH; thioether N-14)
